Assay [1] deals with secretion of ACTH and β-endorphin. Conditions: reported in the literature; cited from earlier work.
In assay [2] the test system is blood pressure. Conditions: mammals; reported in the literature; cited from earlier work.
The test system of assay [3] is mesenteric vascular bed. Nature of the assay: Blood pressure and mesenteric vasodilatation in the anaesthetized dog. It counts as in vivo. Conditions: for potency of synthetic peptide versus extracted and purified peptide: anaesthetized dog in vivo; for dilatation of vascular beds other than mesenteric / effect on blood pressure: dog; for effect on blood pressure: appears due solely to dilatation of the mesenteric vascular bed; for accompanying decrease in blood pressure / increase in mesenteric flow: pentobarbital-anaesthetized dog, doses of 0.1-0.5 μg. As for the experimental part: (§1) The urotensin peptides from Example II and III are examined for effects on the secretion of ACTH and β-endorphin in vitro and also examined in vivo. […] UI activity of the peptides was measured by the isolated rat hind limb assay, Lederis, K. et al. "Effects and Assay of Urotensin I on the Perfused Hind Limb of the Rat." Gen. Comp. Endocrinol., 24:10-16, 1974. In vivo hypotensive activity of extracted peptides was measured in anaesthetized rats, Lederis, K. and Medakovic, M. "Pharmacological Observations on the Hypotensive Action of Extracts of Teleost Fish Urophyses (Urotensin I) in the Rat." Br. J. Pharmacol. 51:315-324, 1974, and in anaesthetized dogs, MacCannell and Lederis, "Dilatation of the Mesenteric Vascular Bed of the Dog Produced by a Peptide, Urotensin I." J. Pharm. Exp. Ther. 203:38-46, 1977.
(§2) In the pentobarbital-anaesthetized dog, the threshold dose of UI for mesenteric vasodilatation, when given close arterially into the cephalic mesenteric A, is between 0.001 and 0.01 μg for both carp UI (1-41) and for the 4-41 fragment of carp UI. Doses of 0.1-0.5 μg of both peptides produce a 50-150% increase in mesenteric flow; accompanying changes in blood pressure are very modest (about 10% decrease). […] Comp. Endocrinol. 45:446-452, 1981.

Assay [4] deals with cultured rat pituitary cells. Nature of the assay: Secretion of ACTH and β-endorphin by cultured rat pituitary cells. It counts as cell-based. The conditions noted are these: for stimulation of the secretion of ACTH and β-endorphin: in vitro. As to the method:
as §1

The subject of another assay is teleost fish pituitaries. Nature of the assay: Secretion of ACTH by teleost fish pituitaries. As for the experimental part: as §1
Assay [5] has as its system ACTH and β-END-LI secretion. Nature of the assay: ACTH and β-END-LI secretion in vivo in several rat preparations. As to the method:
as §1

The nature of assay [6]: Biological activity (test not specified).
For assay [7], the system named is isolated mesenteric artery strips. Briefly: Isolated mesenteric artery strips of the rat.
Assay [8] can be described thus: Comparison of the two extracted and the two synthetic carp peptides (assay not specified). The conditions noted are these: synthetic versus extracted peptide. As to the method:
as §2

Assay [9] relates to mesenteric vascular bed. Nature of the assay: Blood pressure and vascular dilatation in the monkey. The conditions noted are these: for effect on blood pressure: appears due solely to dilatation of the mesenteric vascular bed. It counts as in vivo.
For the next assay, the system named is isolated rat hind limb. Nature of the assay: Isolated rat hind limb assay (UI activity). As for the experimental part: as §1, §2
Assay [10] concerns blood pressure. Briefly: In vivo hypotensive activity in anaesthetized rats. The conditions noted are these: rat; vascular dilatation appears less selective. As to the method: as §1
For assay [11], the system named is blood pressure. Nature of the assay: Lowering of blood pressure (summary statement, species not stated). In kind it is in vivo.

Like-named read-outs stand apart in the source and are kept apart here.

With `CC[C@H](C)[C@H](NC(=O)[C@@H](NC(=O)[C@H](CC(=O)O)NC(=O)[C@H](CC(C)C)NC(=O)[C@H](CC(C)C)NC(=O)[C@H](CC(C)C)NC(=O)[C@H](CCCNC(=N)N)NC(=O)[C@H](CC(N)=O)NC(=O)[C@H](CC(N)=O)NC(=O)[C@H](C)NC(=O)[C@H](C)NC(=O)[C@H](CCC(N)=O)NC(=O)[C@H](CCC(N)=O)NC(=O)[C@H](CCCCN)NC(=O)[C@H](CCC(=O)O)NC(=O)[C@H](CCCCN)NC(=O)[C@H](CCC(=O)O)NC(=O)[C@H](CCC(N)=O)NC(=O)[C@H](CCCCN)NC(=O)[C@H](CCC(=O)O)NC(=O)[C@@H](NC(=O)[C@H](CCC(=O)O)NC(=O)[C@@H](NC(=O)[C@H](CCSC)NC(=O)[C@H](CCCCN)NC(=O)[C@H](CCCNC(=N)N)NC(=O)[C@H](CC(C)C)NC(=O)[C@H](CC(C)C)NC(=O)[C@H](CCC(=O)O)NC(=O)[C@H](CC(C)C)NC(=O)[C@H](CO)NC(=O)[C@H](CC(C)C)NC(=O)[C@H](CC(=O)O)NC(=O)[C@@H](NC(=O)[C@H](CO)NC(=O)[C@@H](NC(=O)[C@@H]1CCCN1C(=O)[C@@H]1CCCN1C(=O)CNC(=O)[C@@H]1CCC(=O)N1)[C@@H](C)CC)[C@@H](C)CC)[C@@H](C)CC)[C@@H](C)CC)[C@@H](C)O)C(N)=O` [Sauvagine], in assay [1], the “stimulating the secretion of ACTH and β-endorphin” value is “stimulating the secretion of ACTH and β-endorphin”. Besides, in the assay with blood pressure [2], the lowering blood pressure result is on record as “biological activity in lowering blood pressure in mammals”.
In the case of “H-PPISIDLTFHLLRNMIEMARNENQREQAGLNRKYLDEV-NH2 [UI 4-41]”, in the assay with mesenteric vascular bed [3], the “potency of synthetic peptide versus extracted and purified peptide” value is “equipotent with the extracted and purified peptides”; the “dilatation of vascular beds other than mesenteric” value (from here on “dilatation”) is “neither peptide dilates other vascular beds”; the “effect on blood pressure” value is listed as “modest but sustained depression of the blood pressure”; the “accompanying decrease in blood pressure” value is reported as “about 10%”. For the same compound, the “increase in mesenteric flow” value in the assay with mesenteric vascular bed [3] is reported as 50-150%. Further, in assay [4], the “potency to stimulate ACTH and β-endorphin secretion relative to amunine (CRF)” value is given as “comparable to amunine (CRF)”; the “stimulation of the secretion of ACTH and β-endorphin” value is recorded as “high potency”. Further, in the assay on teleost fish pituitaries, the “potency relative to amunine in stimulating the secretion of ACTH” value is listed as “several times more potent than amunine”. The “stimulation of ACTH and β-END-LI secretion in vivo” value in assay [5] is “stimulate ACTH and β-END-LI secretion in vivo”. For the same compound, the biological activity entry in assay [6] was “substantially the same biological activity as the 41-residue polypeptide”. Besides, in assay [7], the “potency of synthetic peptide versus extracted and purified peptide” value is “equipotent with the extracted and purified peptides”. The “activity of synthetic peptide as % of the activity of the respective extracted carp UI peptide” value in assay [8] is reported as 123±58%. Also, in the assay with mesenteric vascular bed [9], the “dilatation” value is “neither peptide dilates other vascular beds” and the “effect on blood pressure” value is given as “modest but sustained depression of the blood pressure”. In addition, the “potency of synthetic peptide versus extracted and purified peptide” value with isolated rat hind limb is “equipotent with the extracted and purified peptides”. Besides, in the assay with blood pressure [10], the “effect on blood pressure” value is listed as “more marked fall in blood pressure”.
Turning to “H-NDDPPISIDLTFHLLRNMIEMARNENQREQAGLNRKYLDEV-NH2 [carp UI (1-41)]”, the “potency of synthetic peptide versus extracted and purified peptide” value was “equipotent with the extracted and purified peptides” in the assay with mesenteric vascular bed [3]; “equipotent with the extracted and purified peptides” in assay [7]; “equipotent with the extracted and purified peptides” in the assay on isolated rat hind limb. Moreover, the “dilatation” value in the assay with mesenteric vascular bed [3] and with mesenteric vascular bed [9] was “neither peptide dilates other vascular beds” each time. Besides, the “effect on blood pressure” value in the assay with mesenteric vascular bed [3] was “modest but sustained depression of the blood pressure”; in the assay with mesenteric vascular bed [9], “modest but sustained depression of the blood pressure”; in the assay on blood pressure [10], “more marked fall in blood pressure”. The “accompanying decrease in blood pressure” value with mesenteric vascular bed [3] was “about 10%”. In the assay with mesenteric vascular bed [3], the “increase in mesenteric flow” value was 50-150%. In addition, in assay [4], the “potency to stimulate ACTH and β-endorphin secretion relative to amunine (CRF)” value is recorded as “comparable to amunine (CRF)”. Also, the “stimulation of the secretion of ACTH and β-endorphin” value in assay [4] (listed as UI) was “stimulate ACTH and β-endorphin activities in vitro”; in assay [4] (listed as urotensin I), “high potency”. For the same compound, the “potency relative to amunine in stimulating the secretion of ACTH” value in the assay with teleost fish pituitaries is recorded as “several times more potent than amunine”. The “stimulation of ACTH and β-END-LI secretion in vivo” value is “stimulate ACTH and β-endorphin activities in vitro and in vivo” in [5] (listed as UI); “stimulate ACTH and β-END-LI secretion in vivo” in [5] (listed as urotensin I). The “activity of synthetic peptide as % of the activity of the respective extracted carp UI peptide” value in assay [8] was found to be 119±19%. Moreover, in the assay with blood pressure [11], the “lowering of blood pressure” value is “lower blood pressure for an extended time period”.

The values are drawn from patent US4533654A, “Urotensin peptides” (The Salk Institute For Biological Studies, priority 1984, dated 1985).
